This is an account of results in patent publication US7427469B2, “Method of treating cytomegalovirus with DC-SIGN blockers” (priority 2002, dated 2008).

The subject of one test is CMV. Nature of the test: CMV trans-infection assay: virus-pulsed DC-SIGN+ cells co-cultured with MRC-5 cells. The class given is cell-based, Human Cytomegalovirus. Conditions: MD-DC, DC-SIGN+ THP-1 or DC-SIGN+ HeLa cells pre-incubated before pulse with CMV. Here is the method: For trans-infection experiments, cells were incubated with viral suspensions (CMV, VZV or HSV-1, MOI=1) for 2 hr, at 37° C. Thereafter, unbound viral particles were removed by extensive washes and cells were co-cultured with sub-confluent MRC-5 or U373 MG cell monolayers. After 24 to 72 hr, infected MRC-5 or U373-MG cells were fixed, permeabilized and stained with specific mAbs directed against IEA- or EA-CMV (mAbs E13 and 2A2, respectively), VZV (mAb 2013) or HSV (mAb CHA-437) (Argen Biosoft, Varilhes, France). When indicated MD-DC or THP-1 (parental or DC-SIGN^+) cells were incubated with EGTA (5 mM), mannan or anti-DC-SIGN (1B10.2.6 mAb) for 30 minutes at 4° C. prior challenge with infectious preparations. Infection by ADGFP strain was assessed by counting GFP-expressing cells at day 3. For long term infectivity experiments DC-SIGN^+ or parental THP-1 cells were incubated with ADGFP (MOI=1) for 4 hr at 37° C. After extensive washes, infected cells were incubated at 37° C. and an aliquot of these cells was added to a sub-confluent MRC-5 cell culture every 2 days during the assay.
MD-DC, THP-1 or HeLa expressing DC-SIGN were incubated with a mutant CMV strain encoding a GFP (ADGFP) (Borst et al., 2001). […]
The capacity of DC-SIGN to enhance infectiveness of CMV was assessed. […]

In test [1] the target is T1, DC-SIGN (Homo sapiens, UniProt Q9NNX6).
T1 sequence (Q9NNX6 1-404): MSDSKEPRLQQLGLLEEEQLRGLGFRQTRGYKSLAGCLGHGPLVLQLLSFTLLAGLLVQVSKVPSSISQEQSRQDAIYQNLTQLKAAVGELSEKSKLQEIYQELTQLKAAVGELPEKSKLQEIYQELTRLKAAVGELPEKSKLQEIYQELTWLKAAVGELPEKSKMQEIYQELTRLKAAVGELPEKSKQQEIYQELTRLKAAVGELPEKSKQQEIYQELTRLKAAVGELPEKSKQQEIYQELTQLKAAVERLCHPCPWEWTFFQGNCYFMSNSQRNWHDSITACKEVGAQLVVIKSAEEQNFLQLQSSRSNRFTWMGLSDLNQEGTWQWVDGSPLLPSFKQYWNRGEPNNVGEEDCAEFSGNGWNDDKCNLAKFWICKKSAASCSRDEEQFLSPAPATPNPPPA
The experiment in a line: Binding of CMV virions to DC-SIGN-expressing cells (flow cytometry, anti-CMV gB mAb). It counts as cell-based. Also noted: expressed in transfected cells; host or cells: THP-1 (gift of Dr. D. R. Littman; Kwon et al., 2002). The conditions noted are these: pre-incubation of cells with the substance. As for the experimental part:
The capacity of CMV to bind DC-SIGN was investigated. Parental and DC-SIGN^+ THP-1 cells, or immature monocyte-derived DC (MD-DC) were incubated on ice with increasing concentrations of CMV and the presence of cell-bound virions was quantified by flow cytometry using a mAb directed against the CMV gB.
In general terms: Flow cytometry measures light scatter and fluorescence of single cells or particles in a stream.

For test [2], the target named is T1, DC-SIGN. The experiment in a line: HIV-1 gp120 binding competition assay on DC-SIGN+ THP-1 cells. Further details: expressed in transfected cells; host or cells: THP-1 (gift of Dr. D. R. Littman; Kwon et al., 2002). Conditions: DC-SIGN+ THP-1 cells pre-treated with competitors (20 μg/ml).
Description: DC-SIGN^+ THP-1 cells were washed two times, resuspended in ice-cold binding buffer (1 mM CaCl2, 2 mM MgCl2 and 0.1% Bovine Serum Albumin in PBS) at 10^6 cells/mL and pre-treated or not for 15 minutes with competitors (20 μg/ml). Thereafter, recombinant biotinylated CXCR4-tropic (MN isolate) HIV-1 gp120 (2 μg/ml; Immunodiagnostics Inc., Woburg, Mass.) was added for 30 minutes at 4° C.
In this assay we pre-incubated DC-SIGN^+ THP-1 cells with purified HIV-1 gp120, CMV gB, HSV-1 gB, VZV gB, HSV-1 gD or VZV gE. Following exposure to each single envelope glycoprotein, cells were incubated with biotinylated HIV-1 gp120, which binding to DC-SIGN^+ THP-1 cells was evidenced by immunostaining and FACS analysis.
The target in the next test is T2, DC-SIGNR (Homo sapiens, UniProt Q9H2X3).
T2 construct: expressed in transfected cells; host or cells: HEK 293T, transient transfection; cDNA a gift from Dr R. W. Doms
It counts as binding. The conditions noted are these: data not shown.

Test [3] has as its target T1, DC-SIGN. The class given is binding. Further details: expressed in transfected cells. The conditions noted are these: data not shown.

T2 sequence (Q9H2X3 whole entry): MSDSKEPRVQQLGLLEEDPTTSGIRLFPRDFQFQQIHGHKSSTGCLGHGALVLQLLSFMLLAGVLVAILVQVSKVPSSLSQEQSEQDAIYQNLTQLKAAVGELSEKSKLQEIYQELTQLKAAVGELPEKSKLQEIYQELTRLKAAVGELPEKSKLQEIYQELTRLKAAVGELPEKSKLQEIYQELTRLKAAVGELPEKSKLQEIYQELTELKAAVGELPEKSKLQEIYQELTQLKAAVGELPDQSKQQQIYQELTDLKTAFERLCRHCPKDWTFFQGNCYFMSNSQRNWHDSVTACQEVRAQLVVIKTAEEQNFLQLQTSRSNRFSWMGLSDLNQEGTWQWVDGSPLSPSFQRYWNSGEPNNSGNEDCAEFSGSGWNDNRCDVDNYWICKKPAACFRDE

Turning to mannan, the “Trans-infection of MRC-5 cells / transmission of CMV from DC-SIGN+ cells to MRC-5 cells” value in the test on CMV is “prevented”. Besides, the “CMV virion attachment to cells” value at DC-SIGN [1] is “Abrogation”. For the same compound, the “Binding of biotinylated HIV-1 gp120 on DC-SIGN (competition)” value on DC-SIGN [2] is listed as “competitive effect”.
Take `O=C(O)CN(CCOCCOCCN(CC(=O)O)CC(=O)O)CC(=O)O` [EGTA]: the “Trans-infection of MRC-5 cells / transmission of CMV from DC-SIGN+ cells to MRC-5 cells” value in the test with CMV is given as “prevented”. The “Binding of HIV-1 gp120 and CMV gB to HEK 293T cells expressing DC-SIGNR” value on DC-SIGNR is listed as “blocked”. Also, at DC-SIGN [3], the “Binding of HIV-1 gp120 and CMV gB to HEK 293T cells expressing DC-SIGN” value was “blocked”.
